Ends that are not written are not given here.
Key:
Assay type in all cases: cell-based
[1] = system: Human skin biopsies; test: Human skin biopsies rendered senescent in vitro using methylglyoxal, H&E morphology
Method: Human skin biopsies are rendered artificially senescent in vitro, by means of a treatment with methylglyoxal (MGO). For this, des punch de 6-mm human skin punch biopsies are incubated at the air-liquid interface in a specific culture medium. They are then treated with 5 mM or 10 mM of MGO (Sigma) deposited at the surface of the biopsies and in the culture medium. The biopsies are then treated with: • condition 1: 20 μL of PBS 1×, or • condition 2: 20 μL of peptide SEQ ID NO: 4 at 1%, or • condition 3: 20 μL of peptide SEQ ID NO: 4 at 3%.
The biopsies are fixed and embedded in paraffin, and are then cut into 4-μm sections using a microtome. Hematoxyline/eosine (H&E) immunolabeling is performed on the sections previously cut and their morphology and structure are studied by microscopic observation (under a microscope Nikon Eclipse E600, objective 40×).

[2] = system: vimentin; test: Vimentin immunofluorescence detection in fibroblasts aged by replicative senescence; settings: human fibroblasts, daily application of peptide at 1% or 3%, more than 17 passages, immunofluorescence at passages 6 and 17
Method: Human fibroblasts are placed in culture in a specific medium and kept in culture for a long treatment (for more than 17 passages), by means of a daily application of the peptide SEQ ID NO: 2 at a concentration of 1% or of 3%. A vimentin immunofluorescence detection experiment is performed on the cells in culture passages 6 and 17. The cells are then washed with PBS, fixed with 3.7% formaldehyde for 10 minutes, permeabilized by means of 0.2% Triton X-100 for 10 minutes (Fisher Chemical) and incubated with 1% BSA (Euromedex) for 15 minutes. An anti-vimentin antibody (Tebu Santa Cruz) is then added and incubated at a dilution of 1/200 for 2 h at room temperature. After washing with PBS, a Donkey anti-mouse IgG antibody, conjugated with a marker ALEXA FLUOR® 488, is added at a dilution of 1/1000 and incubated for one hour at room temperature. Finally, the sections are mounted with Fluoromount G (Electron Microscopy Science) and examined under a microscope (Nikon Eclipse 80i, enlargement 40×).

[3] = system: TRF2 protein; test: TRF2 protein expression by Western Blot in human fibroblasts with or without TRF2 siRNA; settings: 72 h
Method: To quantify the efficacy of a peptide compound according to the invention, on the overexpression of TRF2 in a human fibroblast population, the gene coding for TRF2 was “turned off” by using the siRNA technique.
Fibroblast cells are placed in culture in a 6-well plate until 60% confluence. The culture medium is renewed by adding the peptide SEQ ID NO: 2 at 1% under the conditions described below. Then, 100 μL of a mixture previously produced containing, in the end, 10 nM of TRF2 siRNA and the transfection agent are gently added, one drop at a time, and one well at a time. The cell culture plate is incubated at 37° C. and 5% in CO2 for 72 h. The culture medium is renewed every 2 days. Four conditions were established: • condition 1: control without siRNA and without active agent • condition 2: cells transfected with the siRNA, without active agent • condition 3: cells not transfected but treated with the active agent • condition 4: cells transfected with the siRNA and treated with the active agent
The quantification of the TRF2 expression is observed by the classic immunotransfer technique (Western Blot) performed with an anti-TRF2 antibody and according to a classic protocol. […]

## Ala-Met-Lys-Lys-Gln-Lys-Trp-NH2 (AMKKQKW-NH2) [SEQ ID NO: 4]
[1]; 6-mm human skin punch biopsies, 5 mM or 10 mM MGO, 20 μL of peptide at 1% or 3%, H&E
  damage inflicted on the structures of the biopsies vs control conditions: much less significant
[1]; human skin biopsies treated with MGO, 20 μL of peptide at 1% vs 3%
  protective effect of the peptide, 3% dose vs 1% dose: dose-dependent

## Lys-Lys-Gln-Lys-Trp-NH2 (KKQKW-NH2) [SEQ ID NO: 2]
[2]
  vimentin expression in aged fibroblasts, treated vs not treated: express less vimentin
[3]; condition 3 vs condition 1: cells not transfected, peptide at 1%, Western Blot
  increase in the expression of the TRF2 protein with respect to the control: 17%
[3]; condition 4 vs condition 1: cells transfected with 10 nM TRF2 siRNA and treated with peptide at 1%
  reduction in TRF2 expression with respect to the control condition: no more than 18%
